Measurements reported in ChEMBL document CHEMBL1137279, “Synthesis of N1-arylidene-N2-quinolyl- and N2-acrydinylhydrazones as potent antimalarial agents active against CQ-resistant P. falciparum strains” (Bioorg Med Chem Lett, 2006).
pIC50: −log10 of the molar value.

Legend:
[1] = test system: Plasmodium falciparum; test: Antimalarial activity against chloroquine-sensitive Plasmodium falciparum 3D7; type: functional, organism-based
[2] = test system: Plasmodium falciparum; test: Antimalarial activity against chloroquine-resistant Plasmodium falciparum W2; type: functional, organism-based
[3] = test system: Plasmodium falciparum; test: Antimalarial activity against chloroquine-sensitive Plasmodium falciparum D10; type: functional, organism-based
[4] = Cytotoxicity against mouse WEHI cell line by MTT assay; type: cell-based; settings: WEHI cells, read-out: ED50 (the source's name)
[5] = test system: Plasmodium falciparum; test: Antimalarial activity against chloroquine-resistant Plasmodium falciparum K1; type: functional, organism-based

Compound | pIC50 [1] | pIC50 [2] | pIC50 [3] | CC50 [4] [nM] | pIC50 [5]
COc1ccc2nc3cc(Cl)ccc3c(N/N=C/c3ccc(CN4CCCC4)cc3)c2c1 | 6.95 | 6.86 | 7.01 | – | –
CCN(CC)CCCC(C)Nc1ccnc2cc(Cl)ccc12 (stereo not given) [CHLOROQUINE] | – | – | – | 9700 | –
COc1ccc2nc3cc(Cl)ccc3c(N/N=C/c3ncc[nH]3)c2c1 | 9.00 | 7.51 | 7.20 | 5100 | 8.35
COc1ccc2nc3cc(Cl)ccc3c(N/N=C/c3ncc[nH]3)c2n1 | 6.55 | 7.57 | 7.14 | – | 6.70
COc1ccc(/C=N/Nc2ccnc3ccc(OC)cc23)cc1 | – | 6.89 | 7.00 | – | –
COc1ccc(/C=N/Nc2ccnc3cc4c(cc23)OCO4)cc1 | 6.81 | 6.79 | 6.68 | – | 6.33
COc1cccc2c(N/N=C/c3ccccc3)ccnc12 | 5.24 | 6.60 | 6.28 | – | –
CCN(CC)Cc1ccc(/C=N/Nc2ccnc3ccc(OC)cc23)cc1 | 7.96 | 7.10 | 7.41 | – | 7.26
COc1ccc2nccc(N/N=C/c3ccc(N(C)C)cc3)c2c1 | – | 6.98 | 7.08 | – | –
COc1cccc2c(N/N=C/c3ccc(N(C)C)cc3)ccnc12 | – | 6.45 | 6.47 | – | –
Clc1ccc2c(N/N=C/c3ccc(CN4CCCC4)cc3)ccnc2c1 | 7.72 | 7.23 | 7.54 | 19400 | 7.79
